In patent publication US20170107229A1, “SUBSTITUTED TETRAHYDROPYRIDOTHIENOPYRIMIDINES” (BAYER PHARMA AKTIENGESELLSCHAFT, priority 2014, published 2017):

Biological target: T1, human full-length MKNK1 (Homo sapiens, UniProt Q9BUB5, T385D)
T1 construct: GST (N); purchased Carna Biosciences 02-145; host or cells: insect cells (baculovirus expression system)
Assay: MKNK1 kinase high ATP assay (TR-FRET)
Format: biochemical
Conditions: high ATP (2 mM final), 15 min preincubation with enzyme, GST-MKNK1 (T344D)
Experimental: MKNK1-inhibitory activity at high ATP of compounds of the present invention after their preincubation with MKNK1 was quantified employing the TR-FRET-based MKNK1 high ATP assay as described in the following paragraphs.
A recombinant fusion protein of Glutathione-S-Transferase (GST, N-terminally) and human full-length MKNK1 (amino acids 1-424 and T344D of accession number BAA 19885.1), expressed in insect cells using baculovirus expression system and purified via glutathione sepharose affinity chromatography, was purchased from Carna Biosciences (product no 02-145) and used as enzyme. As substrate for the kinase reaction the biotinylated peptide biotin-Ahx-IKKRKLTRRKSLKG (C-terminus in amide form) was used, which can be purchased e.g. from the company Biosyntan (Berlin-Buch, Germany).
For the assay 50 nL of a 100fold concentrated solution of the test compound in DMSO was pipetted into a black low volume 384well microtiter plate (Greiner Bio-One, Frickenhausen, Germany), 2 μL of a solution of MKNK1 in aqueous assay buffer [50 mM HEPES pH 7.5, 5 mM MgCl2, 1.0 mM dithiothreitol, 0.005% (v/v) Nonidet-P40 (Sigma)] was added and the mixture was incubated for 15 min at 22° C. to allow pre-binding of the test compounds to the enzyme before the start of the kinase reaction. Then the kinase reaction was started by the addition of 3 μL of a solution of adenosine-tri-phosphate (ATP, 3.3 mM=>final conc. in the 5 μL assay volume is 2 mM) and substrate (0.1 μM=>final conc. in the 5 μL assay volume is 0.06 μM) in assay buffer and the resulting mixture was incubated for a reaction time of 30 min at 22° C. The concentration of MKNK1 was adjusted depending of the activity of the enzyme lot and was chosen appropriate to have the assay in the linear range, typical concentrations were in the range of 0.003 μg/mL. The reaction was stopped by the addition of 5 μL of a solution of TR-FRET detection reagents (5 nM streptavidine-XL665 [Cisbio Bioassays, Codolet, France] and 1 nM anti-ribosomal protein S6 (pSer236)-antibody from Invitrogen [#44921G] and 1 nM LANCE EU-W1024 labeled ProteinG [Perkin-Elmer, product no. AD0071]) in an aqueous EDTA-solution (100 mM EDTA, 0.1% (w/v) bovine serum albumin in 50 mM HEPES pH 7.5).
The resulting mixture was incubated for 1 h at 22° C. to allow the formation of complex between the phosphorylated biotinylated peptide and the detection reagents. Subsequently the amount of phosphorylated substrate was evaluated by measurement of the resonance energy transfer from the Eu-chelate to the streptavidine-XL. Therefore, the fluorescence emissions at 620 nm and 665 nm after excitation at 350 nm were measured in a TR-FRET reader, e.g. a Rubystar (BMG Labtechnologies, Offenburg, Germany) or a Viewlux (Perkin-Elmer). The ratio of the emissions at 665 nm and at […] was taken as the measure for the amount of phosphorylated substrate. The data were normalised (enzyme reaction without inhibitor=0% inhibition, all other assay components but no enzyme=100% inhibition).

T1 sequence (Q9BUB5 1-424 isoform Q9BUB5-2 T344D): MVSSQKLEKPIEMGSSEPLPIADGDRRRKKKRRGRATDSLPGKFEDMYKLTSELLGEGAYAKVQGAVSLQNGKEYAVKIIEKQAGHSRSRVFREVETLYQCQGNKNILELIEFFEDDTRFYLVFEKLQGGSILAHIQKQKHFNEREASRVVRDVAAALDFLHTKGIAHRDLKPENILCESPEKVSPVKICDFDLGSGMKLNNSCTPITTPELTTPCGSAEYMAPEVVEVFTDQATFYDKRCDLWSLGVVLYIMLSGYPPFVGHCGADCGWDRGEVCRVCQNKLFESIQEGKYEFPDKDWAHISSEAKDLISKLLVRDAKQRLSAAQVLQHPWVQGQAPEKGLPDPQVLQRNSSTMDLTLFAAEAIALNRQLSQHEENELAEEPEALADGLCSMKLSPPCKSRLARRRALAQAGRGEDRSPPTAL

Row | Compound | IC50
1 | CN(C)C(=O)N1CCc2c(sc3ncnc(Nc4ccn5nccc5c4)c23)C1 [Example 30, N,N-Dimethyl-4-(pyrazolo[1,5-a]pyridin-5-ylamino)-5,8-dihydropyrido[4′,3′:4,5]thieno[2,3-d]pyrimidine-7(6H)-carboxamide] | 484 nM
2 | C[C@@H]1CN(C(=O)N2CCc3c(sc4ncnc(Nc5ccc6[nH]c(=O)sc6c5)c34)C2)C[C@H](C)O1 [Example 31, 6-[(7-{[(2R,6S)-2,6-Dimethylmorpholin-4-yl]carbonyl}-5,6,7,8-tetrahydropyrido[4′,3′:4,5]thieno[2,3-d]pyrimidin-4-yl)amino]-1,3-benzothiazol-2(3H)-one] | 59 nM
3 | C[C@@H]1CN(C(=O)N2CCc3c(sc4ncnc(Nc5ccc6[nH]ncc6c5)c34)C2)C[C@H](C)O1 [Example 33, [(2R,6S)-2,6-Dimethylmorpholin-4-yl][4-(1H-indazol-5-ylamino)-5,8-dihydropyrido[4′,3′:4,5]thieno[2,3-d]pyrimidin-7(6H)-yl]methanone] | 21 nM
4 | C[C@@H]1CN(C(=O)N2CCc3c(sc4ncnc(Nc5cc6cn[nH]c6cn5)c34)C2)C[C@H](C)O1 [Example 34, [(2R,6S)-2,6-Dimethylmorpholin-4-yl][4-(1H-pyrazolo[3,4-c]pyridin-5-ylamino)-5,8-dihydropyrido[4′,3′:4,5]thieno[2,3-d]pyrimidin-7(6H)-yl]methanone] | 70 nM
5 | C[C@@H]1CN(C(=O)N2CCc3c(sc4ncnc(Nc5cnc6[nH]ncc6c5)c34)C2)C[C@H](C)O1 [Example 35, [(2R,6S)-2,6-Dimethylmorpholin-4-yl][4-(1H-pyrazolo[3,4-b]pyridin-5-ylamino)-5,8-dihydropyrido[4′,3′:4,5]thieno[2,3-d]pyrimidin-7(6H)-yl]methanone] | 27 nM
6 | CS(=O)(=O)N1CCc2c(sc3ncnc(Nc4ccn5nccc5c4)c23)C1 [Example 36, 7-(Methylsulfonyl)-N-(pyrazolo[1,5-a]pyridin-5-yl)-5,6,7,8-tetrahydropyrido[4′,3′:4,5]thieno[2,3-d]pyrimidin-4-amine] | 157 nM

Other lines, results leading:

Row | IC50 | Compound
7 | 31 nM | CC(C)(C)OC(=O)N1CCc2c(sc3ncnc(Nc4cc5cn[nH]c5cc4Br)c23)C1 [Example 25, tert-Butyl 4-[(6-bromo-1H-indazol-5-yl)amino]-5,8-dihydropyrido[4′,3′:4,5]thieno[2,3-d]pyrimidine-7(6H)-carboxylate]
8 | 25 nM | CN(C)C(=O)N1CCc2c(sc3ncnc(Nc4cc5cn[nH]c5cc4Cl)c23)C1 [Example 27, 4-[(6-Chloro-1H-indazol-5-yl)amino]-N,N-dimethyl-5,8-dihydropyrido[4′,3′:4,5]thieno[2,3-d]pyrimidine-7(6H)-carboxamide]
9 | 37 nM | CN(C)C(=O)N1CCc2c(sc3ncnc(Nc4cc5cn[nH]c5cc4Br)c23)C1 [Example 29, 4-[(6-Bromo-1H-indazol-5-yl)amino]-N,N-dimethyl-5,8-dihydropyrido[4′,3′:4,5]thieno[2,3-d]pyrimidine-7(6H)-carboxamide]
10 | 10 nM | COc1cc2[nH]ncc2cc1Nc1ncnc2sc3c(c12)CCN(C(=O)N1C[C@@H](C)O[C@@H](C)C1)C3 [Example 32, [(2R,6S)-2,6-Dimethylmorpholin-4-yl]{4-[(6-methoxy-1H-indazol-5-yl)amino]-5,8-dihydropyrido[4′,3′:4,5]thieno[2,3-d]pyrimidin-7(6H)-yl}methanone]
11 | 3 nM | COc1cc2[nH]ncc2cc1Nc1ncnc2sc3c(c12)CCN(S(C)(=O)=O)C3 [Example 37, N-(6-Methoxy-1H-indazol-5-yl)-7-(methylsulfonyl)-5,6,7,8-tetrahydropyrido[4′,3′:4,5]thieno[2,3-d]pyrimidin-4-amine]
12 | 68 nM | CS(=O)(=O)N1CCc2c(sc3ncnc(Nc4ccc5[nH]ncc5c4)c23)C1 [Example 38, N-(1H-Indazol-5-yl)-7-(methylsulfonyl)-5,6,7,8-tetrahydropyrido[4′,3′:4,5]thieno[2,3-d]pyrimidin-4-amine]
